Holding throughout (experiment): In vitro cell proliferation assay (MTT)
What all share (format): cell-based

One assay deals with HuCCT1. To be noted: Homo sapiens, HuCCT-1, 72 h. In short, it runs like this:
(§1)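 MTT read-out of proliferation after 72 hr compound exposure; 5×10^3 cells/well, duplicate wells, dose range 10 nM–3 μM.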

A further assay deals with BaF3 G250A. To be noted: Mus musculus, BaF3, 72 h. In short, it runs like this:
as §1

The test system of another assay is MDA-MB-231. To be noted: Homo sapiens, MDA-MB-231, 72 h. Summed up: as §1
The test system of the next assay is Caki-2. To be noted: Homo sapiens, CAKI-2, 72 h. Summed up:
as §1

The next assay relates to HuH6 Clone 5. Conditions: HUH-6-clone5, 72 h. In short, it runs like this: as §1
A further assay deals with HUVEC. Conditions: Homo sapiens, 72 h. The protocol: Cancer cell lines (5×10^3 cells per well) or HUVEC (1×10^4 cells per well) or HRMEC (1×10^4 cells per well) were distributed in 96-well plates and incubating in duplicate with escalating concentrations (10 nM to 3 μM) of compounds for 72 hr. Cell proliferation was measured using MTT (3 [4,5-dimethylthiazol-2-yl]-2,5-diphenyltetrazolium bromide).

The subject of a further assay is BaF3 G250E. Conditions: Mus musculus, BaF3, 72 h. In short, it runs like this: as §1
A further assay has as its system H1975. Conditions: Homo sapiens, NCI-H1975, 72 h. In short, it runs like this:
as §1

The next assay relates to HuH7. Conditions: Homo sapiens, Huh-7, 72 h. Summed up:
as §1

Another assay relates to HepG2. Conditions: Homo sapiens, HepG2, 72 h. In short, it runs like this:
as §1

A further assay has as its system PC-3. To be noted: Homo sapiens, PC-3, 72 h. In short, it runs like this: as §1
The subject of a further assay is HeLa. Conditions: Homo sapiens, 72 h. Summed up:
as §1

In another assay the test system is HRMEC. Conditions: 72 h. Summed up:
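Growth is assessed with the tetrazolium dye MTT following a 72 hr incubation with compound spanning 10 nM up to 3 μM, each dose tested twice on 5×10^3 plated cells per well.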

The next assay deals with BaF3 WT. To be noted: Mus musculus, BaF3, 72 h. Summed up:
as §1

The next assay has as its system BaF3 T315I. To be noted: Mus musculus, BaF3, 72 h. In short, it runs like this:
as §1

In the next assay the test system is BaF3 E255K + M351T. Conditions: Mus musculus, BaF3, 72 h. Summed up: as §1
The next assay has as its system A549. To be noted: Homo sapiens, A549, 72 h. In short, it runs like this: as §1
A further assay has as its system HT29. To be noted: Homo sapiens, HT-29, 72 h. In short, it runs like this:
as §1

The test system of the next assay is BxPC-3. To be noted: Homo sapiens, BXPC-3, 72 h. In short, it runs like this: as §1

Bounds are passed on as bounds.

Data on 1 compound can be found in US9493455B2, “Azaindole derivatives as inhibitors of protein kinases” (ORIBASE PHARMA, priority 2012, dated 2016).

Regarding `COC(=O)c1cc2cc(NCc3cc(NC(=O)c4ccc(CN5CCN(C)CC5)c(C(F)(F)F)c4)ccc3C)cnc2[nH]1` [OR0512], the EC50 (as a rule, the midpoint of the concentration-response curve) in the assay on HuCCT1 is 100 to 1000 nM; in the assay with BaF3 G250A it was no more than 100 nM; in the assay on MDA-MB-231, no more than 100 nM; in the assay on Caki-2 it was no more than 100 nM; with HuH6 Clone 5, no less than 1000 nM; in the assay with HUVEC it was no more than 100 nM. The EC50 with BaF3 G250E is no more than 100 nM; in the assay with H1975, 100 to 1000 nM; with HuH7, no more than 100 nM; with HepG2, no more than 100 nM; in the assay on PC-3, 100 to 1000 nM; in the assay on HeLa it was 100 to 1000 nM. Further, the EC50 is no more than 100 nM in the assay on HRMEC; no more than 100 nM in the assay with BaF3 WT; no more than 100 nM in the assay on BaF3 T315I; no more than 100 nM in the assay with BaF3 E255K + M351T; no more than 100 nM in the assay with A549; 100 to 1000 nM in the assay on HT29. For the same compound, the 50% effective concentration (EC50) in the assay with BxPC-3 is no more than 100 nM.
